In US4265829A, “Halogenated-naphthalenetriyltris(sulfonylimino)-aryl disulfonic acids and salts thereof” (American Cyanamid Company, priority 1979, dated 1981):
Structures can show the parent of a compound that is named as a salt.

Experiments:
activated human C1 = activated human C1 (Homo sapiens, UniProt P09871); experiment: Test Code 026 (C1 inhibitor); type: biochemical; conditions: serial twofold dilution assay; higher well number indicates higher activity
Excerpt: (§1) An active inhibitor protects C2 from C1 and C4; (ii) Test Code 035 (C3-C9 inhibitor)--This test determines the ability of the late components of human complement (C3-C9) to lyse EAC 142 in the presence of appropriate dilutions of the test compound. An active inhibitor protects EAC 142 from lysis by human C3-C9; (iii) Test Code 036 (C-Shunt inhibitor)--In this test human erythrocytes rendered fragile are lysed in autologous serum via the shunt pathway activated by cobra venom factor in the presence of appropriate dilutions of the test compound. Inhibition of the shunt pathway results in failure of lysis; (iv) Forssman Vasculitis Test--Here, the well known complement dependent lesion, Forssman vasculitis, is produced in guinea pigs by intradermal injection of rabbit anti-Forssman antiserum. […] Percent inhibition is calculated by comparison with simultaneous controls. […]

[1] = tested on: late components of human complement (C3-C9); experiment: Test Code 035 (C3-C9 inhibitor); type: biochemical; conditions: serial twofold dilution assay; lysis of EAC 142; higher well number indicates higher activity
Excerpt: as §1

[2] = tested on: shunt pathway activated by cobra venom factor; experiment: Test Code 036 (C-Shunt inhibitor); type: cell-based; conditions: serial twofold dilution assay; human erythrocytes in autologous serum; higher well number indicates higher activity
Excerpt: as §1

[3] = tested on: serum complement activity; experiment: Guinea Pig Intraperitoneal Test (GPIP); type: in vivo; conditions: 200 mg./kg. i.p.
Excerpt: An active inhibitor protects C2 from C1 and C4; (ii) Test Code 035 (C3-C9 inhibitor)--This test determines the ability of the late components of human complement (C3-C9) to lyse EAC 142 in the presence of appropriate dilutions of the test compound. An active inhibitor protects EAC 142 from lysis by human C3-C9; (iii) Test Code 036 (C-Shunt inhibitor)--In this test human erythrocytes rendered fragile are lysed in autologous serum via the shunt pathway activated by cobra venom factor in the presence of appropriate dilutions of the test compound. Inhibition of the shunt pathway results in failure of lysis; (iv) Forssman Vasculitis Test--Here, the well known complement dependent lesion, Forssman vasculitis, is produced in guinea pigs by intradermal injection of rabbit anti-Forssman antiserum. The lesion is measured in terms of diameter, edema and hemorrhage and the extent to which a combined index of these is inhibited by prior intraperitoneal injection of the test compound at 200 mg./kg. is then reported, unless otherwise stated; (v) Forssman Shock Test--Lethal shock is produced in guinea pigs by an i.v. injection of anti-Forssman antiserum and the harmonic mean death time of treated guinea pigs is compared with that of simultaneous controls; (vi) Complement Level Reduction Test--In this test, the above dosed guinea pigs, or others, are bled for serum and the complement level is determined in undiluted serum by the capillary tube method of U.S. Pat. No. 3,876,376 and compared to undosed control guinea pigs; (vii) Cap 50 Test--Here, appropriate amounts of the test compound are added to a pool of guinea pig serum in vitro, after which the undiluted serum capillary tube assay referred to above is run. The concentration of compound inhibiting 50% is reported; (viii) Guinea Pig Intraperitoneal Test (GPIP)--Guinea pigs weighing about 300 g. are dosed intraperitoneally (i.p.) with 200 mg./kg. of the test compound dissolved in saline and adjusted to pH 7-8. […] Percent inhibition is calculated by comparison with simultaneous controls. […]

O=S(=O)(O)c1cc(NS(=O)(=O)c2cc(S(=O)(=O)Nc3cc(S(=O)(=O)O)cc(S(=O)(=O)O)c3)c3c(Cl)ccc(S(=O)(=O)Nc4cc(S(=O)(=O)O)cc(S(=O)(=O)O)c4)c3c2)cc(S(=O)(=O)O)c1 [5,5',5"-[(8-Chloro-1,3,5-napthalenetriyl)tris (sulfonylimino)]-tri-1,3-benzenedisulfonic acid, hexasodium salt]
Cl 026 Wells (activated human C1): +7 Wells
C-Late 035 Wells [1]: +1 Wells
Shunt Inhibition 036 Wells [2]: +5 Wells
In Vivo Activity (Guinea Pig) % Inhibition Intraperitoneal, 30 minutes ([3]; serum taken 30 minutes after injection): -67%
In Vivo Activity (Guinea Pig) % Inhibition Intraperitoneal, 60 minutes ([3]; serum taken 60 minutes after injection): -72%
In Vivo Activity (Guinea Pig) % Inhibition Intraperitoneal, 120 minutes ([3]; serum taken 120 minutes after injection): -81%
